Measurements as given in patent US11883423B2, “Nucleobase analogue derivatives and their applications” (BOARD OF REGENTS, THE UNIVERSITY OF TEXAS SYSTEM, priority 2014, dated 2024).

Assays:
[1] = test system: advanced pancreatic cancer; conditions: in combination with gemcitabine; cited from earlier work
[2] = test system: BxPC-3 cells; assay: Cytotoxicity of Gem-ARA, MTT assay, BxPC-3 cells; assay type: cell-based, human; conditions: up to 72 h, mean ± SD (n>3)
Method: (§1) To understand the effect of the omega-3 polyunsaturated fatty acid nature of the DHA (i.e., the docosahexaedecanoyl group) in the Gem-DHA on its cytotoxicity against tumor cells, gemcitabine was also conjugated to arachidonic acid, an omega-6 polyunsaturated fatty acid, to synthesize 4-(N)-arachidonyl gemcitabine (Gem-ARA) (FIG. 4). Human pancreatic cancer cells (MIA PaCa-2 or BxPC-3) were seeded (3,000/well) in 96-well plates. After overnight incubation, cells were treated with various concentrations of gemcitabine HCl or Gem-ARA at 37° C., 5% CO2 for up to 72 h. Gemcitabine HCl was dissolved in phosphate buffered saline (PBS, pH 7.4, 10 mM), and Gem-ARA was dissolved in DMSO. The maximum amount of DMSO added per well was 0.9 μL, which was found non-toxic. The number of viable cells after the incubation was determined using an MTT assay as described above. The 50% inhibition concentration (IC50) values were estimated using GraphPad prism 5 parameters curve fittings.

[3] = test system: MIA PaCa-2 cells; assay: Cytotoxicity of Gem-ARA, MTT assay, MIA PaCa-2 cells; assay type: cell-based, human; conditions: up to 72 h, mean ± SD (n>3)
Method: as §1

[4] = Aqueous solubility by the indirect method (IPM/water partitioning, Beall et al.); assay type: physicochemical; conditions: mean ± SD (n=3)
Method: The aqueous solubility of Gem-DHA was determined following an indirect method according to Beall et al. with minimal modifications (Beall HD et al. International Journal of Pharmaceutics. 1993, 93, 37-47). Briefly, an excess amount of Gem-DHA was added to 100 μl of IPM in a crimp-sealed amber glass vials under nitrogen and was stirred vigorously at room temperature for 24 h, protected from light. After the stirring was stopped, the mixture was left to stand for an additional 24 h for equilibration. The content of the vial was centrifuged (14,000 rpm, 10 min) and the supernatant was transferred into a different tube. Aliquots of the saturated IPM solution were used to measure the Gem-DHA concentration before partitioning (A1) using HPLC (after proper dilution with methanol). Then, water was added to the IPM saturated solution in a volume ratio of 10:1. The two phases were mixed by vortexing for 5 min, left to stand for 15 min, then centrifuged (14,000 rpm, 15 min) to collect the IPM layer. Gem-DHA concentration in the IPM layer (A2) was again measured using HPLC after partitioning. The following equation was used to calculate the partition coefficient (KIPM/water) (Beall HD et al. International Journal of Pharmaceutics. 1993, 93, 37-47):
[formula] where Vwater is the volume of the water phase and VIPM is the volume of IPM. The value of (Vwater/VIPM) was 10.
The aqueous solubility (Sw) of Gem-DHA was determined using the following equation (Id.):
[formula] where SIPM is the solubility of Gem-DHA in IPM.
(§2) In order to validate the method of Beall et al. (Id.), the aqueous solubility of 4-(N)-stearoyl gemcitabine, another lipophilic gemcitabine conjugate (Sloat BR et al. Int J Pharm. 2011, 409(1-2), 278-288), which is stable in water, was measured directly (i.e., direct method) or using the indirect method reported by Beall et al. (Beall HD et al. International Journal of Pharmaceutics. 1993, 93, 37-47).

[5] = Aqueous solubility measured directly (direct method); assay type: physicochemical; conditions: mean ± SD (n=3)
Method: as §2

[6] = test system: pre-established tumors; conditions: solubilized in a Tween 80 solution; cited from earlier work
[7] = test system: MIA PaCa-2, Panc-1 cells, CCRF-CEM, B16-F10, and TC-1; conditions: various tumor cell lines in culture; cited from earlier work
[8] = test system: NCI-56 human tumor cell lines; conditions: cited from earlier work
[9] = test system: Panc-02 tumor cells; assay: Cytotoxicity after 4 h co-incubation, MTT test; assay type: cell-based, mouse; conditions: Panc-02 cells, at concentrations of more than 80 μM
Method: The mechanisms underlying the cytotoxicity of the Gem-DHA may be different from that of gemcitabine. For example, in cell culture studies, Panc-02 cells were seeded into 96-well plates (1,500 cells per well) and incubated at 37° C., 5% CO2 for 24 h. They were then co-incubated with various concentrations of Gem-DHA, gemcitabine HCl alone, or DHA alone for 4 h, and cell viability was determined using an MTT test.

[10] = test system: Panc-02 tumors; assay: Antitumor activity against s.c. Panc-02 tumors in C57BL/6 mice; assay type: in vivo; conditions: i.p., ~0.1 mmole/kg, twice a week, up to 6 doses
Method: Therefore, the in vivo anti-tumor activity of Gem-DHA was also evaluated and compared to that of DHA alone in male C57BL/6 mice (6-8 weeks, Charles River) with subcutaneously (s.c.)
implanted Panc-02 tumors. Briefly, 1×10^6 cells were s.c. injected in the right flank of mice. Sixteen days later, mice were randomized into groups (n=12) and i.p. injected with Gem-DHA (˜55 mg/kg, […]) or DHA (˜33 mg/kg, ˜0.1 mmole/kg). Mice in the control group were i.p. injected with sterile 5% mannitol (w/v). Gem-DHA and DHA was dissolved in a Tween 80/ethanol/water solution with 5% (w/v) of mannitol. The doses were based on the average weight of mice in the same group on the first day of injection. The treatment was repeated twice a week for up to 6 doses. Tumor growth was monitored using a digital caliper, and tumor volume was calculated based on the longest diameter (L1) and the shortest diameter (L2) of each tumor using the equation of V=½×(L1×L2×L2).

## C#Cc1cccc(Nc2ncnc3cc(OCCOC)c(OCCOC)cc23)c1 [erlotinib]
[1]
  Prolongation of median survival: 10 days

## CCCCC/C=C\C/C=C\C/C=C\C/C=C\CCCC(=O)Nc1ccn([C@@H]2O[C@H](CO)[C@@H](O)C2(F)F)c(=O)n1 [Gem-ARA, 4-(N)-Arachidonoyl Gemcitabine]
[2]
  IC50: 1.93 ± 3.8 nM
[3]
  IC50: 64.3 ± 42.7 nM

## CCCCCCCCCCCCCCCCCC(=O)Nc1ccn([C@@H]2OC(CO)C(O)C2(F)F)c(=O)n1 (some centres unmarked) [Stearoyl gemcitabine, 4-(N)-stearoyl gemcitabine]
[4]; IPM/water, room temperature
  KIPM/water (partition coefficient): 35.33 ± 2.7
[4]; estimated from solubility in IPM and KIPM/water
  Water Solubility, Indirect method: 1.39 ± 0.1 µg/mL
[5]
  Water Solubility, Direct method: 1.38 ± 1.6 µg/mL
[6]
  Inhibition of tumor growth compared with gemcitabine: not more active than gemcitabine alone
[7]
  Cytotoxicity compared with gemcitabine: less cytotoxic than gemcitabine alone

## CC/C=C\C/C=C\C/C=C\C/C=C\C/C=C\C/C=C/CCC(=O)O[C@@H](C(=O)O[C@H]1C[C@@]2(O)[C@@H](OC(=O)c3ccccc3)C3[C@](C)(C(=O)[C@H](OC(C)=O)C(=C1C)C2(C)C)[C@@H](O)C[C@H]1OC[C@@]31OC(C)=O)[C@@H](NC(=O)c1ccccc1)c1ccccc1 (some centres unmarked) [DHA conjugated to paclitaxel]
[8]
  Effect of DHA conjugation on cytotoxicity: lowers the cytotoxicity of the paclitaxel

## CC/C=C\C/C=C\C/C=C\C/C=C\C/C=C\C/C=C\CCC(=O)O [DHA, Cis-4,7,10,13,16,19-docosahexaenoic acid, reference compound]
[9]
  Cytotoxicity after 4 h of co-incubation: did not show any significant cytotoxicity
[10]
  Inhibition of Panc-02 tumor growth: did not significantly inhibit the tumor growth
